SMILES strings stand for the structures.

The source of these data is US20240174648A1, “Small Molecule Compound” (Technoderma Medicines Pte Ltd, priority 2019, published 2024).

The target of one experiment is JAK1 (Homo sapiens, UniProt P23458). Put plainly: JAK kinase inhibition assay (EZ Reader, peptide substrate phosphorylation) - JAK1. It counts as biochemical. The following applies: JAK1 kinase 20 nM; 8 concentration points, max 10 μM. The text has this:
(§1) Assay for Identifying Inhibitory Effects of Compounds on JAK Kinases
(§2) Janus kinases (JAK), including JAK1, JAK2, JAK3 and Tyk2, transduce a cytokine-mediated signal through a JAK-STAT pathway. The kinases are 120-140 kDa in size and have 7 determined homology regions: JH1 to JH7. JH1 is an important region for enzymatic activity and has typical characteristics of tyrosine kinases. Phosphorylation of tyrosine leads to a change in the conformation of JAK protein, thereby promoting binding of substrate. The JAK-STAT system includes three main parts: receptors penetrating a cell membrane, Janus kinases binding to the receptors, and signal transducers and activators of transcription (STAT) for transmitting signals to a nucleus and DNA. When cytokines bind to receptors, JAK phosphorylates the receptors and attracts STAT proteins. The STAT proteins are also phosphorylated and combined with one another to form dimers. The dimers enter the nucleus and bind to DNA, thereby leading to gene transcription.
(§3) EZ Reader from PerkinElmer can be used to detect the phosphorylation of polypeptide substrates catalyzed by kinases. The device is based on microfluidic techniques, and can directly detect fluorescently labeled substrates and products. The separation step is achieved by controlling the pressure and electric field strength in the microfluidic chip. In kinase assays, a product conversion ratio is usually controlled to be 20-30%. A biological test is used to identify inhibitory effects of compounds on JAKs.
(§4) Compound powder was dissolved in DMSO, sealed and stored in a freezer under −20° C. The in-house compound Ref1 was used as a positive control for JAK1, JAK2 and Tyk2 tests, and Ref2 was used as a positive control for JAK3 tests.
(§5) S2.8. Assay buffer: 20 mM HEPES buffer, pH 7.4, 10 mM magnesium chloride, 0.01% bovine serum albumin BSA, 0.0005% Tween-20 and 1 mM dithiothreitol solution.
(§6) S2.9. Stop buffer: 180 mM HEPES buffer, 20 mM ethylenediaminetetraacetic acid and 0.2% coating reagent 3.
(§7) S2.10. Separation buffer: 100 mM HEPES buffer, 10 mM ethylenediaminetetraacetic acid, 0.0005% Tween 20, 0.1% coating reagent 3 and 1% dimethyl sulfoxide.
(§8) The compound was dissolved in dimethyl sulfoxide and diluted to 10 mM concentration, a certain volume of solution was taken and diluted to 0.6 mM concentration, 10 μL of the 0.6 mM dilution was added to a 384-well microplate, and then was diluted 3-fold with a total of 8 concentration points.
(§9) Positive control (HPE1): Ref1, final concentration: 10 μM […]
(§10) Negative control (ZPE): DMSO, final content: 1.6%
(§11) Compounds: maximum final concentration: 10 μM; 3-fold dilution, 8 concentration points and 2 duplicates.
(§12) S4.1. 250 nL of the compound was added to each well of the assay microplate by using ECHO, and centrifuged at 1000 rpm for 1 minute.
(§13) S4.2. 5 μL of the assay buffer was added and agitated for a few seconds to fully dissolve the compound.
(§14) S4.3. 5 μL of 3× substrate solution and 5 μL of 3× kinase solution were added and centrifuged at 800 rpm for 1 minute.
(§15) S4.4. Final concentrations of JAK1, JAK2, JAK3 and Tyk2 kinases in the reaction system were 20 nM, 1 nM, 1 nM and 1 nM respectively.
(§16) S4.5. Incubation at room temperature, where kinases had time differences, and different batches of kinases had time differences.
(§17) S4.6. When 20%-30% of the reaction completed, 15 μL of stop buffer was added to stop the reaction, and centrifuged at 1000 rpm for 2 minutes.
(§18) S4.7. The microplates were placed on EZ Reader for reading.
(§19) S4.8. Readings on EZ Reader were calculated by using a peak height, where product conversion ratio (%)=product/(product+substrate)*100.
(§20) 5. Data Processing: IC50 calculation
(§21) A graphing software Xlfit was used to form a concentration curve of the test compound, and an IC50 value was calculated.
(§22) “A” means “≥10 μM”; “B” means “≥1 μM and <10 μM”; “C” means “≥0.1 μM and <1 μM”; and “D” means “<0.1 μM”.

The next experiment deals with Tyk2 (Homo sapiens, UniProt P29597). Kind of experiment: JAK kinase inhibition assay (EZ Reader, peptide substrate phosphorylation) - Tyk2. The following applies: Tyk2 kinase 1 nM; 8 concentration points, max 10 μM. The format is biochemical.
Source text: as §1, §2, §3, §4, §5, §6, §7, §8, §9, §10, §11, §12, §13, §14, §15, §16, §17, §18, §19, §20, §21, §22

Sequence of Tyk2 (P29597 whole entry): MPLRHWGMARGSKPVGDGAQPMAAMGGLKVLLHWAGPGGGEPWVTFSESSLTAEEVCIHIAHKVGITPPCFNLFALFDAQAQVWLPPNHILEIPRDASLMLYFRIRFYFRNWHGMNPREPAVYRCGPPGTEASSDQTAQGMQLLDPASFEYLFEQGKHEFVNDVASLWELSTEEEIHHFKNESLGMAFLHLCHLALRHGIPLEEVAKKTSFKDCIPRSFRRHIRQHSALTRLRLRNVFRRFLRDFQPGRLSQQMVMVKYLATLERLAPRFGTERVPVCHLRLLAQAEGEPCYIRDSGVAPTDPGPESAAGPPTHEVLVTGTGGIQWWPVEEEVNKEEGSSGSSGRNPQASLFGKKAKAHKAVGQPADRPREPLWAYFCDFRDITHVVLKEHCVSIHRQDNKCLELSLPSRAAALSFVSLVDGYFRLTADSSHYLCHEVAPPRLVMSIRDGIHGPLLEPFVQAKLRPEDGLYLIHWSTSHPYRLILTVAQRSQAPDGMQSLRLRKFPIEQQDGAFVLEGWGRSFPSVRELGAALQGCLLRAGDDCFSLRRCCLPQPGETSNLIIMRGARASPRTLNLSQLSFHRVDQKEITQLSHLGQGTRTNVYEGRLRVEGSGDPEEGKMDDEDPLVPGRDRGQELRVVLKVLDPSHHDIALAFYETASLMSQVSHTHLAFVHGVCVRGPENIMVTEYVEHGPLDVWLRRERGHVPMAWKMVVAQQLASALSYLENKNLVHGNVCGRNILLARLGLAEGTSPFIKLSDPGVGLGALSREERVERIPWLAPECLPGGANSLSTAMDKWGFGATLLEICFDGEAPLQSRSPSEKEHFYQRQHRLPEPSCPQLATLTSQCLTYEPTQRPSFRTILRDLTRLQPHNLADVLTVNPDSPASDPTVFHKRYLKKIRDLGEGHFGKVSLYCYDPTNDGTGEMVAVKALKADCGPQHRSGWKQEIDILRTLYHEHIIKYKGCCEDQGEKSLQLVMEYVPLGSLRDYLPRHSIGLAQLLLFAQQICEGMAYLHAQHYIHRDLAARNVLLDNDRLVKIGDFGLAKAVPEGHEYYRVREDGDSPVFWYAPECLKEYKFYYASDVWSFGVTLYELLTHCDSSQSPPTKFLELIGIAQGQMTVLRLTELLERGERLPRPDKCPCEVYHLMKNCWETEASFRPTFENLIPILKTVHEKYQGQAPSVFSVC
Sequence of JAK1 (P23458 whole entry): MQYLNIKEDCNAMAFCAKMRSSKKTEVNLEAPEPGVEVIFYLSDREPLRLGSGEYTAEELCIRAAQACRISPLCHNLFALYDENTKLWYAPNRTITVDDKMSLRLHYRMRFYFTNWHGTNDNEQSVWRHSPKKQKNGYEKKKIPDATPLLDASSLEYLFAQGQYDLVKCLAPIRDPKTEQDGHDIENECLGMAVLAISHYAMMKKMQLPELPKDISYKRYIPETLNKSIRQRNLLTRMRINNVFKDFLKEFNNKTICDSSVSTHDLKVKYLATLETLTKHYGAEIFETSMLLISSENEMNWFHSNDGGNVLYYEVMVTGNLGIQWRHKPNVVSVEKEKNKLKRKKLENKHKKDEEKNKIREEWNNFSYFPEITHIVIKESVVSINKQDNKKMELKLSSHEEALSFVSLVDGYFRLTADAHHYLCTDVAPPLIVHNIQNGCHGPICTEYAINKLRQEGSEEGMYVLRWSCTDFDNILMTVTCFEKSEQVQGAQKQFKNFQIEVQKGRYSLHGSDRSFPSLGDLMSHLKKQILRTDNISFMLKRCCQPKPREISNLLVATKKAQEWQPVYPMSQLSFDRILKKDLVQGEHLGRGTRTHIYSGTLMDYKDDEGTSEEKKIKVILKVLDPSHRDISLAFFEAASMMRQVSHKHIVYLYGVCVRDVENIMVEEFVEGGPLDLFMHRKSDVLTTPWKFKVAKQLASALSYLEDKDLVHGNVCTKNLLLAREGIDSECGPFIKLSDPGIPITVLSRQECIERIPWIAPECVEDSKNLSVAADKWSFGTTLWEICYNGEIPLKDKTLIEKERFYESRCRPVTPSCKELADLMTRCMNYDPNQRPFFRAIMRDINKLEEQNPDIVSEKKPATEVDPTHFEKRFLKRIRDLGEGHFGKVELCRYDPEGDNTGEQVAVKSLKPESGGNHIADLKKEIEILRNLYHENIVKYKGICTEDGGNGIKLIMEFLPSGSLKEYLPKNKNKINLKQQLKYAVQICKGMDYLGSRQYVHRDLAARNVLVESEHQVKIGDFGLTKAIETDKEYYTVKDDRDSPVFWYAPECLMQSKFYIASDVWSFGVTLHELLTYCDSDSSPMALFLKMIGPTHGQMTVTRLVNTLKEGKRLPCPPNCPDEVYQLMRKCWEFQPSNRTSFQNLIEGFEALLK

By IC50 is commonly meant the concentration needed to halve the response being measured. On to `Cn1cc(Nc2nccc(-c3ccnc(NC(=O)C4CC4)c3)n2)cn1` [TDM-180773, N-(4-(2-((1-methyl-1H-pyrazol-4-yl)amino)pyrimidin-4-yl)-pyridin-2-yl)cyclopropanemethane], for which the IC50 at JAK1 and against Tyk2 was no less than 10 µM in each case.
As to `Cn1cc(Nc2nccc(-c3ccnc(NC(=O)CC#N)c3)n2)cn1` [TDM-180774, 2-cyano-N-(4-(2-((1-methyl-1H-pyrazol-4-yl)amino)pyrimidin-4-yl)pyridin-2-yl)acetamide], the IC50 against JAK1 and on Tyk2 was no less than 10 µM each time.
As to `COCC(=O)Nc1cc(-c2ccnc(Nc3cnn(C)c3)n2)ccn1` [TDM-180777, 2-methoxy-N-(4-(2-((1-methyl-1H-pyrazol-4-yl)amino)pyrimidin-4-yl)pyridin-2-yl)acetamide], the IC50 against JAK1 and against Tyk2 was no less than 10 µM in each case.
For the molecule `Cc1cc(-c2ccnc(Nc3cnn(C)c3)n2)ccc1C(=O)NCC#N` [TDM-180779, N-(cyanomethyl)-2-methyl-4-(2-((1-methyl-1H-pyrazol-4-yl)amino)pyrimidin-4-yl)benzamide], the IC50 on JAK1 and on Tyk2 was 1 to 10 µM each time.
Regarding `Cn1cc(Nc2nccc(-c3ccc(C(=O)NC4CC4(F)F)nc3)n2)cn1` (centres unmarked) [TDM-180781, N-(2,2-difluorocyclopropyl)-5-(2-((1-methyl-1H-pyrazol-4-yl)amino)pyrimidin-4-yl)pyridinecarboxamide], the IC50 against JAK1 and against Tyk2 was 1 to 10 µM in each case.
For the molecule `Cc1cc(-c2ccnc(Nc3cnn(C)c3)n2)ccc1-n1nccc1C1CC1` [TDM-180782, 4-(4-(5-cyclopropyl-1H-pyrazol-1-yl)-3-methylphenyl)-N-(1-methyl-1H-pyrazol-4-yl)pyrimidin-2-amine], the IC50 at JAK1 was no less than 10 µM; at Tyk2 it was 1 to 10 µM.
For `Cc1cc(-c2ccnc(Nc3cnn(C)c3)n2)ccc1NC(=O)CC(F)(F)F` [TDM-180783, 3,3,3-trifluoro-N-(2-methyl-4-(2-((1-methyl-1H-pyrazol-4-yl)amino)pyrimidin-4-yl)phenyl)propanamide], in that order: 0.1 to 1 µM and 1 to 10 µM.
`Cc1cc(-c2ccnc(Nc3cnn(C)c3)n2)ccc1C(=O)NCC#N` [TDM-180784, N-(cyanomethyl)-2-methyl-4-(2-((1-methyl-1H-pyrazol-4-yl)amino)pyrimidin-4-yl)benzamide] returned an IC50 on JAK1 of 0.1 to 1 µM.
Take `Cn1cc(Nc2nccc(-c3ccc(CN4CCOCC4)cc3)n2)cn1` [TDM-180787, N-(1-methyl-1H-pyrazol-4-yl)-4-(4-(morpholinomethyl)phenyl)pyrimidine-2-amine]: the IC50 at JAK1 and on Tyk2 was 1 to 10 µM each time.
As for `CN1CCN(Cc2ccc(-c3ccnc(Nc4cnn(C)c4)n3)cc2)CC1` [TDM-180788, N-(1-methyl-1H-pyrazol-4-yl)-4-(4-((4-methylpiperazine-1-yl)methyl)phenyl)pyrimidin-2-amine], the IC50 at JAK1 and on Tyk2 was 1 to 10 µM in each case.
As to `CC(=O)N1CCN(Cc2ccc(-c3ccnc(Nc4cnn(C)c4)n3)cc2)CC1` [TDM-180789, 1-(4-(4-(2-((1-methyl-1H-pyrazol-4-yl)amino)pyrimidin-4-yl)benzyl)piperazin-1-yl)ethan-1-one], the IC50 on JAK1 was no less than 10 µM; on Tyk2 it was 1 to 10 µM.
On to `Cn1cc(Nc2nccc(-c3ccnc(NC(=O)CC(F)(F)F)c3)n2)cn1` [TDM-180790, 3,3,3-trifluoro-N-(4-(2-((1-methyl-1H-pyrazol-4-yl)amino)pyrimidin-4-yl)pyridin-2-yl)propanamide], for which the IC50 against JAK1 and against Tyk2 was no less than 10 µM in each case.
In the case of `Cn1cc(Nc2nccc(-c3ccc(NC(=O)CO)cc3)n2)cn1` [TDM-180791, 2-hydroxy-N-(4-(2-((1-methyl-1H-pyrazol-4-yl)amino)pyrimidin-4-yl)phenyl)acetamide], the figures for the IC50 against JAK1 and against Tyk2 were 0.1 to 1 µM and 1 to 10 µM, respectively.
In the same order, the values of `Cn1cc(Nc2nccc(-c3ccnc(NC(=O)C4CC4(F)F)c3)n2)cn1` (centres unmarked) [TDM-180792, 2,2-difluoro-N-(4-(2-((1-methyl-1H-pyrazol-4-yl)amino)pyrimidin-4-yl)pyridin-2-yl)cyclopropane-1-carboxamide] are no less than 10 µM and no less than 10 µM.
For the molecule `COCCC(=O)Nc1ccc(-c2ccnc(Nc3cnn(C)c3)n2)cc1` [TDM-180799, 3-methoxy-N-(4-(2-((1-methyl-1H-pyrazol-4-yl)amino)pyrimidin-4-yl)phenyl)propanamide], the IC50 against JAK1 lay in the range of 0.1 to 1 µM; against Tyk2, 1 to 10 µM.
As for `Cn1cc(Nc2nccc(-c3ccc(NC(=O)CO)nc3)n2)cn1` [TDM-180806, 2-hydroxy-N-(5-(2-((1-methyl-1H-pyrazol-4-yl)amino)pyrimidin-4-yl)pyridin-2-yl)acetamide], the IC50 at JAK1 and against Tyk2 was 1 to 10 µM each time.
For `Cn1cc(Nc2nccc(-c3ccc(C(=O)NC4CC4)nc3)n2)cn1` [TDM-180826, N-cyclopropyl-5-(2-((1-methyl-1H-pyrazol-4-yl)amino)pyrimidin-4-yl)pyridinecarboxamide], the IC50 on JAK1 and on Tyk2 was 1 to 10 µM throughout.
Consider `CCS(=O)(=O)Nc1ccc(-c2ccnc(Nc3cnn(C)c3)n2)cn1` [TDM-180829, N-(5-(2-((1-methyl-1H-pyrazol-4-yl)amino)pyrimidin-4-yl)pyridin-2-yl)ethanesulfonamide], for which the IC50 against JAK1 and against Tyk2 was 1 to 10 µM in each case.
For the molecule `COCC(=O)Nc1ccc(-c2ccnc(Nc3cnn(C)c3)n2)cn1` [TDM-180831, 2-methoxy-N-(5-(2-((1-methyl-1H-pyrazol-4-yl)amino)pyrimidin-4-yl)pyridin-2-yl)acetamide], the values for the concentration for half-maximal inhibition (IC50) against JAK1 and against Tyk2 were 1 to 10 µM and no less than 10 µM, respectively.
`Cn1cc(Nc2nccc(-c3ccc(C(=O)NC4CC4)cc3)n2)cn1` [TDM-180852, N-cyclopropyl-4-(2-((1-methyl-1H-pyrazol-4-yl)amino)pyrimidin-4-yl)benzamide]: the IC50 against JAK1 and against Tyk2 was 1 to 10 µM throughout.
Take `Cn1cc(Nc2nccc(-c3ccc(NC(=O)C4(C)CC4)nc3)n2)cn1` [TDM-180853, 1-methyl-N-(5-(2-((1-methyl-1H-pyrazol-4-yl)amino)pyrimidin-4-yl)pyridin-2-yl)cyclopropane-1-carboxamide]: the IC50 against JAK1 and against Tyk2 was 1 to 10 µM in each case.
In the case of `Cn1cc(Nc2nccc(-c3ccc(NC(=O)CC#N)c4[nH]ccc34)n2)cn1` [TDM-180867, 2-cyano-N-(4-(2-((1-methyl-1H-pyrazol-4-yl)amino)pyrimidin-4-yl)-1H-indol-7-yl)acetamide], the half-inhibitory concentration (IC50) at JAK1 and at Tyk2 was 0.1 to 1 µM each time.
Take `Cn1cc(Nc2nccc(-c3ccc(NC(=O)C4CC4(F)F)c4[nH]ccc34)n2)cn1` (centres unmarked) [TDM-180868, 2,2-difluoro-N-(4-(2-((1-methyl-1H-pyrazol-4-yl)amino)pyrimidin-4-yl)-1H-indol-7-yl)cyclopropane-1-carboxamide]: the IC50 against JAK1 and against Tyk2 was less than 0.1 µM each time.
For the molecule `Cn1cc(Nc2nccc(-c3ccc(NC(=O)C4CC4)c4[nH]ccc34)n2)cn1` [TDM-180869, N-(4-(2-((1-methyl-1H-pyrazol-4-yl)amino)pyrimidin-4-yl)-1H-indol-7-yl)cyclopropanecarboxamide], the 50% inhibitory concentration (IC50) at JAK1 and against Tyk2 was 0.1 to 1 µM throughout.
